The values below come from PubChem BioAssay AID2525 (Broad Institute, 2010).

The source made the active and inactive calls.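 Rule for the calls: active = EC50 at most tenfold above the top concentration tested; inconclusive = flat fit with activity between 30% and 70%, or invalid fit; inactive = EC50 beyond tenfold above the top concentration.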

The test system of this experiment is S. cerevisiae SKY197-pL101 polyadenylation reporter, beta-gal luminescence, 9 h. The experiment is described as follows: mRNA 3' processing disruption, beta-gal signal increase – luminescence, S. cerevisiae SKY197-pL101, dose response (AID 2525).

On to `Nc1ncnc2c1ncn2C1OC(CO)CC1O` (stereo unspecified), for which the EC50 was > 50 µM (inactive).
